In patent US20260070945A1, “MACROCYCLIC IMMUNOMODULATORS” (Bristol-Myers Squibb Company, priority 2022, published 2026):
*1 amine or outer side, *2 acyl side, *3 side chain or, on linkers, in order; H or OH if unused. Where a SMILES comes first, the peptide text is derived from it. Bridges are numbered along the chain shown (N, C = ends). [ ]: non-standard residue; d: D form. The star is where a group is joined. Phe(4-COOH) = N[C@@H](Cc1ccc(C(=O)O)cc1)C(=O)O; Bip = N[C@@H](Cc1ccc(-c2ccccc2)cc1)C(=O)O; γGlu = O=C(O)[C@H](CCC(=O)[*:2])N[*:1]; βAsp = O=C(O)[C@H](CC(=O)[*:2])N[*:1]; aIle = CC[C@@H](C)[C@H](N)C(=O)O; 4Pal = N[C@@H](Cc1ccncc1)C(=O)O; Cha = N[C@@H](CC1CCCCC1)C(=O)O; Cit = NC(=O)NCCC[C@H](N)C(=O)O; Carboxymethyl = O=C(O)C*; NMeA = CN[C@@H](C)C(=O)O; Orn = NCCC[C@H](N)C(=O)O; dDap = NC[C@@H](N)C(=O)O; Aun = NCCCCCCCCCCC(=O)O; Dab = NCC[C@H](N)C(=O)O; AEEA = NCCOCCOCC(=O)O

molecular target: T1, PD-1/PD-L1 interaction (PE-labeled human PD-L1-Ig binding to Jurkat cell line over-expressing human PD-1) (Homo sapiens, UniProt Q15116); assay: Jurkat-PD-1 Cell Binding High-Content Screening Assay (CBA); details: Jurkat-hPD-1 cells, PE-labeled PD-L1-Ig 20 nM final; read-out: Jurkat HPD1 PDL1 IC50
T1 construct: expressed in transfected cells; host or cells: Jurkat
Method in brief: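 High-content imaging read-out of PE-PD-L1-Ig binding (20 nM final, 1 h) to Jurkat-hPD-1 cells, after 2 h compound exposure at 37 °C in DMEM with 10% FCS. Nuclei counterstained with Hoechst 33342 after paraformaldehyde fixation.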

T1 sequence (Q15116 25-288): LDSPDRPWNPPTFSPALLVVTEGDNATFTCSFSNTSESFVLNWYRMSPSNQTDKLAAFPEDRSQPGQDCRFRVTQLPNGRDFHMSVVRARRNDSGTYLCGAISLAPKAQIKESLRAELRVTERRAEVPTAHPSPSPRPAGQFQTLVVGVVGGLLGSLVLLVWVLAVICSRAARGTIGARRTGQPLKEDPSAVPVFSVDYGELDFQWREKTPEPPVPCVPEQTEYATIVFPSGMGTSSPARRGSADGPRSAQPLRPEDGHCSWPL

Compared with `CC[C@@H](C)[C@@H]1NC(=O)[C@H](Cc2ccc(-c3ccccc3)cc2)NC(=O)[C@H](C(C)C)NC(=O)[C@H](Cc2c[nH]c3ccccc23)NC(=O)[C@H](CC(=O)O)NC(=O)[C@H](Cc2ccc(OCC(=O)O)cc2)NC(=O)[C@H](Cc2ccncc2)NC(=O)CSC[C@@H](C(=O)N[C@H](CN)C(=O)NCCOCCOCC(=O)N[C@@H](CCC(=O)NCCOCCOCC(=O)N[C@@H](CCC(=O)NCCOCCOCC(=O)N[C@@H](CCCN)C(=O)NCCCCCCCCCCC(=O)O)C(=O)O)C(=O)O)NC(=O)[C@H](CO)NC(=O)[C@H](C(C)C)NC(=O)[C@H](CC2CCCCC2)NC(=O)[C@H](CC(N)=O)NC(=O)[C@@H](CC(C)C)NC(=O)[C@H](C)N(C)C1=O` [Example 2014] ({CH2CO}-[4Pal]Y(Carboxymethyl)DWV[Bip][aIle][NMeA][dL]N[Cha]VSC[dDap][AEEA][γGlu][AEEA][γGlu][AEEA][Orn][Aun]-OH; thioether N-14), `CC[C@@H](C)[C@@H]1NC(=O)[C@H](Cc2ccc(-c3ccccc3)cc2)NC(=O)[C@H](C(C)C)NC(=O)[C@H](Cc2c[nH]c3ccccc23)NC(=O)[C@H](CC(=O)O)NC(=O)[C@H](Cc2ccc(OCC(=O)O)cc2)NC(=O)[C@H](Cc2ccncc2)NC(=O)CSC[C@@H](C(=O)N[C@H](CC(N)=O)C(=O)NCCOCCOCC(=O)N[C@@H](CCC(=O)NCCOCCOCC(=O)N[C@@H](CCC(=O)NCCOCCOCC(=O)N[C@@H](CCCN)C(=O)NCCCCCCCCCCC(=O)O)C(=O)O)C(=O)O)NC(=O)[C@H](CO)NC(=O)[C@H](C(C)C)NC(=O)[C@H](CC2CCCCC2)NC(=O)[C@H](CC(N)=O)NC(=O)[C@@H](CC(C)C)NC(=O)[C@H](C)N(C)C1=O` [Example 2017] ({CH2CO}-[4Pal]Y(Carboxymethyl)DWV[Bip][aIle][NMeA][dL]N[Cha]VSC[dN][AEEA][γGlu][AEEA][γGlu][AEEA][Orn][Aun]-OH; thioether N-14) is 1.8-fold lower in IC50: 42.7 nM for the first, 24.3 nM for the second.

Going from `CC[C@@H](C)[C@@H]1NC(=O)[C@H](Cc2ccc(-c3ccccc3)cc2)NC(=O)[C@H](C(C)C)NC(=O)[C@H](Cc2c[nH]c3ccccc23)NC(=O)[C@H](CC(=O)O)NC(=O)[C@H](Cc2ccc(OCC(=O)O)cc2)NC(=O)[C@H](Cc2ccncc2)NC(=O)CSC[C@@H](C(=O)N[C@H](CC(N)=O)C(=O)NCCOCCOCC(=O)N[C@@H](CCC(=O)NCCOCCOCC(=O)N[C@@H](CCC(=O)NCCOCCOCC(=O)N[C@@H](CCCN)C(=O)NCCCCCCCCCCC(=O)O)C(=O)O)C(=O)O)NC(=O)[C@H](CO)NC(=O)[C@H](C(C)C)NC(=O)[C@H](CC2CCCCC2)NC(=O)[C@H](CCN)NC(=O)[C@@H](CC(C)C)NC(=O)[C@H](C)N(C)C1=O` [Example 2015] ({CH2CO}-[4Pal]Y(Carboxymethyl)DWV[Bip][aIle][NMeA][dL][Dab][Cha]VSC[dN][AEEA][γGlu][AEEA][γGlu][AEEA][Orn][Aun]-OH; thioether N-14) to `CC[C@@H](C)[C@@H]1NC(=O)[C@H](Cc2ccc(-c3ccccc3)cc2)NC(=O)[C@H](C(C)C)NC(=O)[C@H](Cc2c[nH]c3ccccc23)NC(=O)[C@H](CC(=O)O)NC(=O)[C@H](Cc2ccc(OCC(=O)O)cc2)NC(=O)[C@H](Cc2ccncc2)NC(=O)CSC[C@@H](C(=O)N[C@H](C)C(=O)NCCOCCOCC(=O)N[C@@H](CCC(=O)NCCOCCOCC(=O)N[C@@H](CCC(=O)NCCOCCOCC(=O)N[C@@H](CCCN)C(=O)NCCCCCCCCCCC(=O)O)C(=O)O)C(=O)O)NC(=O)[C@H](CO)NC(=O)[C@H](C(C)C)NC(=O)[C@H](CC2CCCCC2)NC(=O)[C@H](CC(N)=O)NC(=O)[C@@H](CC(C)C)NC(=O)[C@H](C)N(C)C1=O` [Example 2016] ({CH2CO}-[4Pal]Y(Carboxymethyl)DWV[Bip][aIle][NMeA][dL]N[Cha]VSC[dA][AEEA][γGlu][AEEA][γGlu][AEEA][Orn][Aun]-OH; thioether N-14), the IC50 rises from 9.4 nM to 38.8 nM (4.1-fold).

Going from `CC[C@@H](C)[C@@H]1NC(=O)[C@H](Cc2ccc(-c3ccccc3)cc2)NC(=O)[C@H](C(C)C)NC(=O)[C@H](Cc2c[nH]c3ccccc23)NC(=O)[C@H](CC(=O)O)NC(=O)[C@H](Cc2ccc(C(=O)O)cc2)NC(=O)[C@H](Cc2ccc(OCC(=O)O)cc2)NC(=O)CSC[C@@H](C(=O)N[C@H](CN)C(=O)NCCOCCOCC(=O)N[C@@H](CCC(=O)NCCOCCOCC(=O)N[C@@H](CCC(=O)NCCOCCOCC(=O)N[C@@H](CCCN)C(=O)NCCCCCCCCCCC(=O)O)C(=O)O)C(=O)O)NC(=O)[C@H](CO)NC(=O)[C@H](C(C)C)NC(=O)[C@H](CC2CCCCC2)NC(=O)[C@H](CC(N)=O)NC(=O)[C@@H](CC(C)C)NC(=O)[C@H](C)N(C)C1=O` [Example 2018] ({CH2CO}-Y(Carboxymethyl)[Phe(4-COOH)]DWV[Bip][aIle][NMeA][dL]N[Cha]VSC[dDap][AEEA][γGlu][AEEA][γGlu][AEEA][Orn][Aun]-OH; thioether N-14) to `CC[C@@H](C)[C@@H]1NC(=O)[C@H](Cc2ccc(-c3ccccc3)cc2)NC(=O)[C@H](C(C)C)NC(=O)[C@H](Cc2c[nH]c3ccccc23)NC(=O)[C@H](CC(=O)O)NC(=O)[C@H](Cc2ccc(C(=O)O)cc2)NC(=O)[C@H](Cc2ccc(OCC(=O)O)cc2)NC(=O)CSC[C@@H](C(=O)N[C@@H](CC(N)=O)C(=O)NCCOCCOCC(=O)N[C@@H](CCC(=O)NCCOCCOCC(=O)N[C@@H](CCC(=O)NCCOCCOCC(=O)N[C@@H](CCCN)C(=O)NCCCCCCCCCCC(=O)O)C(=O)O)C(=O)O)NC(=O)[C@H](CO)NC(=O)[C@H](C(C)C)NC(=O)[C@H](CC2CCCCC2)NC(=O)[C@H](CC(N)=O)NC(=O)[C@@H](CC(C)C)NC(=O)[C@H](C)N(C)C1=O` [Example 2021] ({CH2CO}-Y(Carboxymethyl)[Phe(4-COOH)]DWV[Bip][aIle][NMeA][dL]N[Cha]VSCN[AEEA][γGlu][AEEA][γGlu][AEEA][Orn][Aun]-OH; thioether N-14), the IC50 falls from 73.7 nM to 48.9 nM (1.5-fold).

`CC[C@@H](C)[C@@H]1NC(=O)[C@H](Cc2ccc(-c3ccccc3)cc2)NC(=O)[C@H](C(C)C)NC(=O)[C@H](Cc2c[nH]c3ccccc23)NC(=O)[C@H](CC(=O)O)NC(=O)[C@H](Cc2ccc(OCC(=O)O)cc2)NC(=O)[C@H](Cc2ccncc2)NC(=O)CSC[C@@H](C(=O)NCCOCCOCC(=O)N[C@@H](CCC(=O)NCCOCCOCC(=O)N[C@@H](CCC(=O)NCCOCCOCC(=O)N[C@@H](CCCN)C(=O)NCCCCCCCCCCC(=O)O)C(=O)O)C(=O)O)NC(=O)[C@H](CO)NC(=O)[C@H](C(C)C)NC(=O)[C@H](CC2CCCCC2)NC(=O)[C@H](CC(N)=O)NC(=O)[C@@H](CC(C)C)NC(=O)[C@H](C)N(C)C1=O` [Example 2019] ({CH2CO}-[4Pal]Y(Carboxymethyl)DWV[Bip][aIle][NMeA][dL]N[Cha]VSC[AEEA][γGlu][AEEA][γGlu][AEEA][Orn][Aun]-OH; thioether N-14) and `CC[C@@H](C)[C@@H]1NC(=O)[C@H](Cc2ccc(-c3ccccc3)cc2)NC(=O)[C@H](C(C)C)NC(=O)[C@H](Cc2c[nH]c3ccccc23)NC(=O)[C@H](CC(=O)O)NC(=O)[C@H](Cc2ccc(O)cc2)NC(=O)[C@H](Cc2ccncc2)NC(=O)CSC[C@@H](C(=O)N[C@H](CC(N)=O)C(=O)NCCOCCOCC(=O)N[C@@H](CCC(=O)NCCOCCOCC(=O)N[C@@H](CCC(=O)NCCOCCOCC(=O)N[C@@H](CCCN)C(=O)NCCCCCCCCCCC(=O)O)C(=O)O)C(=O)O)NC(=O)[C@H](CO)NC(=O)[C@H](C(C)C)NC(=O)[C@H](CC2CCCCC2)NC(=O)[C@H](CC(N)=O)NC(=O)[C@@H](CC(C)C)NC(=O)[C@H](C)N(C)C1=O` [Example 2020] ({CH2CO}-[4Pal]YDWV[Bip][aIle][NMeA][dL]N[Cha]VSC[dN][AEEA][γGlu][AEEA][γGlu][AEEA][Orn][Aun]-OH; thioether N-14) are within 1.5-fold of each other in IC50: 24.9 nM for the first, 30.5 nM for the second.

Compared with `CC(C)C[C@@H]1NC(=O)[C@H](Cc2c[nH]c3ccccc23)NC(=O)[C@H](CC(=O)O)NC(=O)[C@H](Cc2ccc(OCC(=O)O)cc2)NC(=O)[C@H](Cc2ccncc2)NC(=O)CSC[C@@H](C(=O)N[C@@H](CC(N)=O)C(=O)N[C@@H](CC(=O)NCCOCCOCC(=O)NCCCCCCCCCCC(=O)O)C(=O)O)NC(=O)[C@H](CO)NC(=O)[C@H](C(C)C)NC(=O)[C@H](CC2CCCCC2)NC(=O)[C@H](CC(N)=O)NC(=O)[C@@H](CC(C)C)NC(=O)[C@H](C)N(C)C(=O)[C@H](C(C)C)NC(=O)[C@H](Cc2ccc(-c3ccccc3)cc2)NC1=O` [Example 2022] ({CH2CO}-[4Pal]Y(Carboxymethyl)DWL[Bip]V[NMeA][dL]N[Cha]VSCN[βAsp][AEEA][Aun]-OH; thioether N-14), `CC[C@@H](C)[C@@H]1NC(=O)[C@H](Cc2ccc(-c3ccccc3)cc2)NC(=O)[C@H](C(C)C)NC(=O)[C@H](Cc2c[nH]c3ccccc23)NC(=O)[C@H](CC(=O)O)NC(=O)[C@H](Cc2ccc(O)cc2)NC(=O)[C@H](Cc2ccncc2)NC(=O)CSC[C@@H](C(=O)N[C@H](CCCCN)C(=O)NCCOCCOCC(=O)NCCCCCCCCCCC(=O)O)NC(=O)[C@H](CO)NC(=O)[C@H](C(C)C)NC(=O)[C@H](CC2CCCCC2)NC(=O)[C@H](CCN)NC(=O)[C@@H](CC(C)C)NC(=O)[C@H](C)N(C)C1=O` [Example 2023] ({CH2CO}-[4Pal]YDWV[Bip][aIle][NMeA][dL][Dab][Cha]VSC[dK][AEEA][Aun]-OH; thioether N-14) is 2.7-fold lower in IC50: 129 nM for the first, 47.4 nM for the second. The second is the more potent here.

For `CC[C@@H](C)[C@@H]1NC(=O)[C@H](Cc2ccc(-c3ccccc3)cc2)NC(=O)[C@H](C(C)C)NC(=O)[C@H](Cc2c[nH]c3ccccc23)NC(=O)[C@H](CC(=O)O)NC(=O)[C@H](Cc2ccc(OCC(=O)O)cc2)NC(=O)[C@H](CCCNC(N)=O)NC(=O)CSC[C@@H](C(=O)N[C@H](CC(N)=O)C(=O)NCCOCCOCC(=O)N[C@@H](CCC(=O)NCCOCCOCC(=O)N[C@@H](CCC(=O)NCCOCCOCC(=O)N[C@@H](CCCN)C(=O)NCCCCCCCCCCC(=O)O)C(=O)O)C(=O)O)NC(=O)[C@H](CO)NC(=O)[C@H](C(C)C)NC(=O)[C@H](CC2CCCCC2)NC(=O)[C@H](CC(N)=O)NC(=O)[C@@H](CC(C)C)NC(=O)[C@H](C)N(C)C1=O` [Example 2024] ({CH2CO}-[Cit]Y(Carboxymethyl)DWV[Bip][aIle][NMeA][dL]N[Cha]VSC[dN][AEEA][γGlu][AEEA][γGlu][AEEA][Orn][Aun]-OH; thioether N-14), the IC50 was 38.3 nM.
